Test results taken from patent publication US11401271B2, “Fused heterocyclic compound, pyrazole-ring-containing fused heterocyclic compound, agricultural composition containing thereof, and method of using the composition” (SOUTH CHINA AGRICULTURAL UNIVERSITY, priority 2017, dated 2022).
Where two headings read alike, the source gives them in different places.

Tests used:
Type in all cases: in vivo
Plutella xylostella = test: whole plant or invertebrate; settings: for mortality at 500 ppm: Plutella xylostella, read-out: Plutella xylostella Mortality (%) 500 ppm
In short: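 Leaf immersion feeding test: 2nd-instar larvae (about 35 per vessel, 3 replicates) kept at 28° C. on 1.0 cm cabbage discs soaked 5 s in a 500 ppm solution with 0.05% Tween-80. Mortality after 24 h of exposure, calculated relative to live larvae in the Tween-80 control.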

Spodoptera exigua = test: whole plant or invertebrate; settings: for mortality at 500 ppm: Spodoptera exigua, 24 h, read-out: Spodoptera exigua Mortality (%) 500 ppm
In short: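 Leaf immersion feeding: second-instar larvae (about 35 per vessel, triplicate) kept at 28° C on discs treated with 500 ppm test solution in 0.05% Tween-80. Mortality at 24 h, calculated relative to surviving larvae in the solvent control.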

Aphis craccivora = test: whole plant or invertebrate; settings: for mortality at 500 ppm: Aphis craccivora, 24 h, read-out: Aphis craccivora Mortality (%) 500 ppm
In short: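 Mortality scored 24 h after treatment as the reduction in live aphids versus a 0.05% Tween-80 control; three replicates, 23° C. Treatment was a 5 s immersion of wingless adults on bean sprouts in 500 ppm test solution containing 0.05% Tween-80, followed by air-drying.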

Bombyx mori L. = test: Toxicity test on 2nd-instar larvae of Bombyx mori L., leaf immersion feeding method; settings: 1000 ppm, 24 hours
Description: (1) Toxicity Test on 2nd-Instar Larvae of Bombyx mori L.
Bombyx mori L. is an important economic insect sensitive to pesticides in an agricultural ecosystem, and is also one of the non-target organisms of environmental ecology listed in pesticide registration of China. The 2nd-instar larvae of Bombyx mori L. were used as test objects and tested by using a leaf immersion feeding method.
Operation process: Samples were weighed accurately, and respectively added with 200 μL of dimethyl sulfoxide to prepare 10 g/L mother liquor which was diluted into a concentration of 1000 ppm with an aqueous solution containing 0.05% of Tween-80 during the test. Young cotyledons of mulberries were collected, washed and air-dried, immersed in a liquid medicine, taken out after 5 seconds, naturally air-dryed, and then transferred into a clean vessel. About 35 2nd -instar larvae of Bombyx mori L. were put into the vessel and fed at a constant temperature of 25° C. Each concentration was repeated 3 times, and an aqueous solution containing 0.05% of Tween-80 was used as a control group. After being treated for 24 hours, a number of dead Bombyx mori L. was counted, and a mortality (%) was calculated according to a formula that mortality (%)=(number of live larvae in the control group −number of treated live larvae)/number of live larvae in the control group * 100%.

Apis cernan = test: Toxicity test on adult worker bees of Apis cernan, small beaker method; settings: 500 ppm, 48 hours
Description: (2) Toxicity Test on Adult Worker Bees of Apis cernan.
Adult worker bees of Apis cernan having the same size were selected for test. The worker bees were collected from beekeeping boxes in the daystart of the test day and tested by using a small beaker method.
Operation process: A small amount of absorbent cotton was put into a 5 mL small beaker, 5 mL of a test liquid medicine (a concentration of 500 ppm) was dropped into the absorbent cotton, and stirred gently to make the absorbent cotton completely wet but not leached obviously, then the small beaker was put into a 500 mL large beaker, then 15 worker bees were put into the large beaker, and finally the large beaker was sealed with gauze. After treatment, the large beaker was placed in a dark room of an artificial climate box. After taking the medicine for 48 hours, a number of live and dead worker bees were investigated.

Solenopsis invicta = test: whole plant or invertebrate; settings: water test tube poison-feeding; for mortality at 100 ppm: Solenopsis invicta
In short: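 Mortality (%) of Solenopsis invicta, computed against live counts in control tubes, was recorded 24 h and 72 h after treatment at 25 °C. Compound was offered by oral feeding in test tubes at 100 ppm, diluted from a 10 g/L DMSO stock into water with 5% honey and 0.05% Tween-80.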

[1] = 24 h, read-out: Solenopsis invicta Mortality (%) 100 ppm 24 h, 100 ppm, 24 h
[2] = 72 h, read-out: Solenopsis invicta Mortality (%) 100 ppm 72 h, 100 ppm, 72 h

Structure (SMILES)	mortality at 500 ppm (Plutella xylostella)	mortality at 500 ppm (Spodoptera exigua)	mortality at 500 ppm (Aphis craccivora)	Toxicity determination Bombyx mori L. Mortality (%) (Bombyx mori L.)	Toxicity determination Apis cernan Mortality (%) (Apis cernan)	mortality at 100 ppm (Solenopsis invicta; [1])	mortality at 100 ppm (Solenopsis invicta; [2])	Plutella xylostella Mortality (%) 500 ppm (Plutella xylostella; 500 ppm, 2nd-instar larvae, leaf immersion feeding)	Spodoptera exigua Mortality (%) 500 ppm (Spodoptera exigua; 500 ppm, 2nd-instar larvae, leaf immersion feeding, 24 hours)	Aphis craccivora Mortality (%) 500 ppm (Aphis craccivora; 500 ppm, wingless adults, impregnation method, 24 hours)	Solenopsis invicta Mortality (%) 100 ppm 24 h (Solenopsis invicta; 100 ppm, 24 h)	Solenopsis invicta Mortality (%) 100 ppm 72 h (Solenopsis invicta; 100 ppm, 72 h)
CCOC(=O)c1c(SC)nn2c1NC(C)(C)c1nc(F)ncc1-2 [Compound A44]	100%	90%	100%	8%	8%	26%	93%	–	–	–	–	–
Nc1ccc2c(c1)-n1nc(C(F)(F)F)c(SC(F)(F)F)c1NC2(C(F)(F)F)C(F)(F)F [Compound A13]	100%	100%	100%	17%	17%	20%	100%	–	–	–	–	–
C=CC1(CC(F)(F)F)Nc2c([S+]([O-])C(F)(F)F)c(C#N)nn2-c2c(Cl)cc(C(F)(F)F)cc21 (centres unmarked) [Compound C14]	100%	100%	100%	10%	10%	30%	100%	–	–	–	–	–
COC(=O)C1(CC#N)Nc2c([S+]([O-])C(F)(F)F)c(C#N)nn2-c2c(Cl)cc(C(F)(F)F)cc21 (centres unmarked) [Compound C31]	100%	100%	100%	3%	8%	34%	100%	–	–	–	–	–
C=CC1(C=C)Nc2c(Br)c(CC)nn2-c2c(Cl)cc(C(F)(F)F)cc21 [Compound C61]	88%	100%	90%	9%	10%	28%	100%	–	–	–	–	–
N#Cc1cn2c(c1C#N)NC(C#N)(C#N)c1ccc(Br)cc1-2 [Compound B9]	100%	100%	100%	0%	5%	38%	100%	–	–	–	–	–
N#Cc1nn2c(c1[S+]([O-])C(F)(F)F)NC(CC(F)(F)F)(C(O)CO)c1cc(C(F)(F)F)cc(Cl)c1-2 (centres unmarked) [Compound C56]	82%	87%	91%	6%	8%	27%	80%	–	–	–	–	–
COC(=O)/C=C/C1(CC#N)Nc2c([S+]([O-])C(F)(F)F)c(C#N)nn2-c2c(Cl)cc(C(F)(F)F)cc21 (centres unmarked) [Compound C58]	100%	100%	100%	4%	4%	29%	98%	–	–	–	–	–
N#Cc1nn2c(c1[S+]([O-])C(F)(F)F)NC(CC(=O)O)(C(=O)O)c1cc(C(F)(F)F)cc(Cl)c1-2 (centres unmarked) [Compound C36]	90%	90%	100%	2%	3%	10%	90%	–	–	–	–	–
COc1ccc(-c2cn3c(c2C(C)=O)NC(C#N)(C#N)c2ccc([N+](=O)[O-])cc2-3)cc1 [Compound B3]	100%	100%	100%	0%	3%	24%	100%	–	–	–	–	–
C[S+]([O-])c1nn2c(c1C#N)NC(F)(C(F)(F)F)c1ccccc1-2 (centres unmarked) [Compound A26]	–	–	–	7%	10%	–	–	100%	100%	100%	45%	100%
C=CC1(CC#N)Nc2c([S+]([O-])C(F)(F)F)c(C#N)nn2-c2c(Cl)cc(C(F)(F)F)cc21 (centres unmarked) [Compound C20]	100%	100%	100%	8%	10%	28%	99%	–	–	–	–	–
C=CC(=O)Nc1ccc2c(c1)-n1cc(C#N)c(C#N)c1NC2(C#N)C#N [Compound B8]	100%	100%	100%	5%	4%	45%	100%	–	–	–	–	–
CNC(=O)C1(CC#N)Nc2c([S+](C)[O-])c(C(C)=O)nn2-c2c(Cl)cc(C(F)(F)F)cc21 (centres unmarked) [Compound C45]	93%	97%	86%	6%	3%	25%	71%	–	–	–	–	–
CNC(=O)N1c2c(C#N)c(SC)nn2-c2ccccc2C1(F)C(F)(F)F (centres unmarked) [Compound A32]	100%	90%	100%	10%	4%	26%	93%	–	–	–	–	–
COc1ccc(-c2cn3c(c2C#N)N(C)C(C#N)(C#N)c2ccc([N+](=O)[O-])cc2-3)cc1 [Compound B2]	100%	90%	93%	3%	4%	26%	93%	–	–	–	–	–
COc1ccc(-c2cn3c(c2C#N)NC(C#N)(C#N)c2ccc([N+](=O)[O-])cc2-3)cc1 [Compound B1, 2-(4-methoxybenzene)-8-nitropyrrole[1,2-α]quinazoline-3,5,5(4H)-tricyano]	100%	100%	100%	0%	0%	20%	100%	–	–	–	–	–
O=[N+]([O-])c1cc2n(n1)-c1cnccc1C(F)(CC(F)(F)F)N2 (centres unmarked) [Compound A43]	100%	100%	100%	3%	8%	20%	100%	–	–	–	–	–
CCOC(=O)c1c(SC)nn2c1NC(F)(C(F)(F)F)c1ccccc1-2 (centres unmarked) [Compound A27]	100%	100%	100%	10%	15%	30%	100%	–	–	–	–	–
CC1(C)Nc2c([S+]([O-])C(F)(F)F)c(C#N)nn2-c2ccccc21 (centres unmarked) [Compound A8]	100%	90%	100%	12%	10%	26%	93%	–	–	–	–	–
